“And” between values parts separate entries of the source, which are not always exact repeats. Identical values can stand only once. “Also recorded” adds a separate entry of the source. Blank lines part the entries; values can stand above or below the compound they belong to.
Columns and labels:
[1] = system: Balb/c×CF1 F1-hybrid mice; test: immunisation of mice with hapten-polymer carrier complex and generation of monoclonal antibodies; format: in vivo; settings: hapten bound to polymer carrier (ovalbumin)
Method: Live mice were primed for immunisation by an intraperitoneal injection of live BCG-vaccine one month before immunisation. The antigen (hapten-OA complex), once adsorbed onto Al(OH)3, was injected intraperitonally and test bleedings were collected. When antibody titre's exceeded 1:2000, mice were considered ready for fusion and the method described by Köhler and Milstein (1975) was employed with minor modifications. Monoclonal antibodies were selected on basis of titre, affinity and specificity. Selected clones were recloned until monoclonality and stored frozen at -80 °C.
Ten to twelve weeks old female Balb/c×CF1 F1-hybrid mice were used for immunisation. 5 One month before immunisation they were primed with 0.2 mL live BCG-vaccine intraperitonally. The antigen ([…] carrier/immunogen) was absorbed onto Al(OH)3 as an adjuvant. The total volume of vaccine per immunisation was 200 µL, containing […] of antigen and […] of adjuvant. The antigen was injected intraperitonally with 2-weeks intervals. Test bleedings were collected 10 days after immunisation and assayed in ELISA.
When antibody titre's exceeded 1:2000, mice were regarded ready for fusion. The procedure as described by Köhler and Milstein (1975) was employed with minor modifications. Monoclonal antibodies were selected on basis of titre, affinity and specificity. […]

[2] = system: HYB 273-1; test: competitive ELISA (immunoassay) for BAM with monoclonal antibody on hapten-coated microtitre plates; format: binding, mice
Method: The cross reactivity of an assay is a measure of its specificity for the analyte relative to similar or related compounds. It is useful in assessing its accuracy in crude samples with several potential haptens. Standard curves based on the 4-parameter-logistic equation (eq 1) were generated for a series of analytes (Table 3) in the range 100 to 0 mg/L (10-fold titrations). The IC50 value (C*) for each analyte was then compared with the IC50 of BAM (C) in equation 3. CR = ((C)/(C*)) × 100% [formula] • CR: cross-reactivity [%] • C: value of IC50 for BAM [µg/L] • C*: value of IC50 for cross-reacting analyte [µg/L]
Standards were used to generate comparative standard curves. The standards were added to hapten-coated plates followed by a known amount of antibody, such as HYB 273-1 in buffer. The plate was incubated for 1 hour, washed, and incubated with RαM^HRP, an enzyme label and incubated for 1 hour. After extensive washing, the enzyme substrate TMB-Plus was added. The colour development was stopped using acid and the absorbance read at 450 nm.
The standards were used to generate a semi-log graph based on the 4-parameter-logistic method (Rodbard, 1974: equation 1). Y = ((A-D))/([1+(((X)/(C)))^B]) + D [formula] • X: concentration of analyte (µg/L). • Y: absorbance at 450 nm (A450). • A: maximum absorbance (upper asymptote). • D: minimum absorbance (lower asymptote). • C: midpoint between A and D. Extrapolation to x-axis yields the value of IC50 (µg/L). • B: slope for the transition between A and D
The signals were normalised according to equation 2 %(B)/(B0) = (A-Axs)/(A0 -Axs) × 100 [formula] • B : concentration of bound antibody and • B0 : concentration of bound antibody in the absence of analyte.
On the plot, 100 % corresponds to the absorption of the zero control (A0: 0 µg/L) and 0 % corresponds to the absorption of an excess control (Axs: 100 µg/L). The normalised signals were plotted vs. BAM concentration and the four-parameter-logistic equation (eq 1) was fitted to the experimental points.
i) Passive adsorption: A MaxiSorp™ microtitre plate was filled by a stationary dispensor with 200 µL/well BAM-OA (16.7 ng/mL) in coating buffer. After coating over night at 4°C the plate was washed 4 times with de-ionised water and dried 30 min at 37°C. The plate was either used immediately or sealed with tape lid and stored at room temperature in the dark until use.
A PolySorp™microtitre plate was filled by a stationary dispensor with 200 µL/well BAM-OA-AQ (50 ng/mL) in 0.1 × PBS. After being exposed to uv-light (300-400 nm) at 34°C for 30 min, the plate was washed 4 times with de-ionised water and dried 30 min at 37°C. […]
Standards (in Milli-Q® water) and samples (150 µL) were added to the hapten-coated plate followed by the addition of 50 µL antibody (HYB 273-1) diluted in 10 × PBST (66.7 ng/mL). […] The colour development was stopped after 10 minutes by adding 50 µL/well 1 M H2SO4 and the absorbance was read at 450 nm. […] Y = ((A-D))/([1+(((X)/(C)))^B]) + D [formula] • X: concentration of analyte (µg/L). • Y: absorbance at 450 nm (A450). • A: maximum absorbance (upper asymptote). • D: minimum absorbance (lower asymptote). • C: midpoint between A and D. Extrapolation to x-axis yields the value of IC50 (µg/L). • B: slope for the transition between A and D
These calculations were executed automatically by the software package SOFTmax® PRO Version 2.2 upon reading the microtitre plates. […]

Compound: N-(5-carboxypentyl)-2,4-dichloro-3-amido aniline [EQ-0031]
immunoresponse on immunisation [1]: good responses were generated and several clones were produced; also recorded: generated good immunoresponse

IC50 ([2]; covalently immobilised (photocoupled) plates, PolySorp, BAM-OA-AQ, Figure 3A): 0.189 ng/mL and 0.19 ng/mL | IC50 ([2]; passively adsorbed plates, MaxiSorp, BAM-OA, Figure 3B): 0.144 ng/mL and 0.14 ng/mL
Compound: NC(=O)c1c(Cl)cccc1Cl [BAM, 2,6-dichlorobenzamide]
DL15 (detection limit, analyte concentration giving a 15 % decrease in maximum signal) ([2]; photo catalysed covalent immobilisation, Figure 3A): 0.02 µg/L | DL15 (detection limit, analyte concentration giving a 15 % decrease in maximum signal) ([2]; surfaces immobilised by passive adsorption, Figure 3B): 0.045 µg/L

Compound: NC(=O)c1ccc(Cl)cc1Cl [2,4-dichlorobenzamide]
cross-reactivity ([2]; IC50 of BAM divided by IC50 of analyte x 100, analytes assayed up to 100 mg/L, antibody HYB 273-1): 3.8%

From patent EP1204866B1, “IMMUNOASSAY FOR PESTICIDES AND THEIR DEGRADATION PRODUCTS” (priority 1999, dated 2001)
